In assay [1] the target is T1, recombinant human estradiol receptors (rhER) alpha (α) (Homo sapiens, UniProt P03372).
T1 sequence (P03372 1-595): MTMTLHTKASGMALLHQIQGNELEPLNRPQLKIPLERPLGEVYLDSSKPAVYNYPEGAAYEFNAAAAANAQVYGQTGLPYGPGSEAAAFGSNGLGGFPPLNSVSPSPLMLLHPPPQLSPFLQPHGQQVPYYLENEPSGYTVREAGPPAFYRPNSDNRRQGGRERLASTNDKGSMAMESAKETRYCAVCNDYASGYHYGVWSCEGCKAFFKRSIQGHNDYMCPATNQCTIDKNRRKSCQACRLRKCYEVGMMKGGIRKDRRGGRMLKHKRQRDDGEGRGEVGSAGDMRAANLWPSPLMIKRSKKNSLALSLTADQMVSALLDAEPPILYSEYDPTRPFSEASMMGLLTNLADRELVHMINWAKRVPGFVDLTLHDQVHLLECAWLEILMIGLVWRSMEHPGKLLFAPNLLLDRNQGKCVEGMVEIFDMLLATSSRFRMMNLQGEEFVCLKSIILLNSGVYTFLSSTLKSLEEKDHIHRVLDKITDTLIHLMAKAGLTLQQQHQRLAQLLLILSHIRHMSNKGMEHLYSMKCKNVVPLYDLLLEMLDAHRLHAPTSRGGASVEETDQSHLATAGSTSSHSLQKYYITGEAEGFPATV
Nature of the assay: in vitro competitive binding assay, displacement of [3H]estradiol from rhER alpha. The settings on record: running text, highest concentration 2.5×E−4 M. A general note: In a radioligand displacement assay an active substance lowers the binding of a labelled ligand.

Assay [2] has as its target recombinant human estradiol receptors (rhER) beta 1 (β1) (Homo sapiens, UniProt Q92731). Nature of the assay: in vitro competitive binding assay, displacement of [3H]estradiol from rhER beta 1. The settings on record: highest concentration 2.5×E−4 M.

As to Biphenol [Example 7], the “estradiol binding / displacement at the alpha estradiol receptor (in words)” value in assay [1] is “no displacement”; in assay [1] (listed as biphenol), “no estradiol binding”. For the same molecule, the “estradiol binding / displacement at the beta estradiol receptor (in words)” value in assay [2] (running text) is listed as “no estradiol binding”.

For the molecule `O=C1OC(c2ccc(O)cc2)(c2ccc(O)cc2)c2ccccc21` [P, Phenolphthalein, reference compound], the “estradiol binding / displacement at the beta estradiol receptor (in words)” value in assay [2] (running text) is on record as “estradiol displacement at low concentration”.

On to `CC(C)(c1ccc(O)cc1)c1cccc(C(C)(C)c2ccc(O)cc2)c1` [L, Bisphenol M, reference compound], for which the “estradiol binding / displacement at the alpha estradiol receptor (in words)” value in assay [1] is on record as “displace estradiol at low concentrations”. Besides, the “estradiol binding / displacement at the beta estradiol receptor (in words)” value in assay [2] (running text) is on record as “displace estradiol at low concentrations”.

Consider Tetra Methyl BPA [Example 2], for which the “estradiol binding / displacement at the beta estradiol receptor (in words)” value is given as “no estradiol binding” in assay [2] (listed as tetra methyl bisphenol-A) and “no detectible estradiol displacement” in assay [2] (running text).

“Bis Hydroxy Phenyl Menthane [reference compound]”: in assay [1], the “estradiol binding / displacement at the alpha estradiol receptor (in words)” value is “displace estradiol at low concentrations”. Moreover, the “estradiol binding / displacement at the beta estradiol receptor (in words)” value in assay [2] (running text) is reported as “displace estradiol at low concentrations”.

As for `CC(c1ccccc1)(c1ccc(O)cc1)c1ccc(O)cc1` [D, Bisphenol Acetophenone, reference compound], the “estradiol binding / displacement at the alpha estradiol receptor (in words)” value in assay [1] is recorded as “displace estradiol”.

Regarding `COC(=O)CCC(C)(c1ccc(O)cc1)c1ccc(O)cc1` [F, Diphenolic Acid Methyl Ester, reference compound], the “estradiol binding / displacement at the alpha estradiol receptor (in words)” value in assay [1] is “displace estradiol”. Moreover, the “estradiol binding / displacement at the beta estradiol receptor (in words)” value in assay [2] (running text) is “displace estradiol”.

`Oc1ccc(Oc2ccc(O)cc2)cc1` [C, Dihydroxy Diphenyl Ether, reference compound]: the “estradiol binding / displacement at the beta estradiol receptor (in words)” value in assay [2] (running text) is “displace estradiol”.

On to `Cc1cc(O)ccc1O` [Example 9, Methyl Hydroquinone], for which the “estradiol binding / displacement at the beta estradiol receptor (in words)” value is “no alpha or beta estradiol displacement” in assay [2] (running text) and “no estradiol binding” in assay [2] (running text, listed as methyl hydroquinone).

`Oc1cccc(O)c1` [Example 5, Resorcinol]: the entries for the “estradiol binding / displacement at the alpha estradiol receptor (in words)” value in assay [1] and in assay [1] (listed as resorcinol) were “no detectible estradiol displacement” and “no estradiol binding”, respectively. Further, the “estradiol binding / displacement at the beta estradiol receptor (in words)” value in assay [2] (running text) is recorded as “no detectible estradiol displacement”; in assay [2] (running text, listed as resorcinol), “no estradiol binding”.

For `O=C1c2ccccc2C(c2ccc(O)cc2)(c2ccc(O)cc2)N1c1ccccc1` [Example 4, N-Phenyl Phenolphthalein Bisphenol], the “estradiol binding / displacement at the alpha estradiol receptor (in words)” value in assay [1] is on record as “no detectible estradiol displacement”; in assay [1] (listed as N-phenyl phenolphthalein bisphenol), “no estradiol binding”. Also, the “estradiol binding / displacement at the beta estradiol receptor (in words)” value is listed as “no detectible estradiol displacement” in assay [2] (running text) and “no estradiol binding” in assay [2] (running text, listed as N-phenyl phenolphthalein bisphenol).

`Cc1cc(C2(c3ccc(O)c(C)c3)CCCCC2)ccc1O` [H, Dimethyl Cyclohexyl Bisphenol, reference compound]: the “estradiol binding / displacement at the alpha estradiol receptor (in words)” value in assay [1] was “displacement of estradiol”. The “estradiol binding / displacement at the beta estradiol receptor (in words)” value in assay [2] (running text) is on record as “displacement of estradiol”.

Turning to “Fluorenone Bis o-Cresol [J, reference compound]”, in assay [2] (running text), the “estradiol binding / displacement at the beta estradiol receptor (in words)” value was “displace estradiol at low concentrations”.

Turning to `CC(C)(c1ccccc1)c1ccc(O)cc1` [B, p-Cumyl Phenol, reference compound], in assay [1], the “estradiol binding / displacement at the alpha estradiol receptor (in words)” value was “displace estradiol”. Further, the “estradiol binding / displacement at the beta estradiol receptor (in words)” value in assay [2] (running text) is listed as “displace estradiol”.

The record behind these values is patent US8669315B2, “Polycarbonate compositions and methods for the manufacture and use thereof” (SABIC Innovative Plastics IP B.V., priority 2011, dated 2014).
